# Data: US6415046B1, “Method and apparatus for the early detection of tissue pathology using wavelet transformation” (priority 1999, dated 2002)
# Read-outs that look alike come from different tables or passages of the source. Marks after values point to notes of the source that are not given here.
# How the values were obtained:
# [1] = test system: Male Sprague-Dawley SPF rats; details: mean±SEM
# Procedure: Two groups of laboratory rats were used to perform two separate experiments (Experiments 1 and 2). Male Sprague-Dawley SPF rats (Charles River Laboratories, Wilmington, Ma.) weighing between 175-200 grams were used for each study. Rats were housed two per cage in a controlled-temperature (20-22° Celsius) room where they were exposed to a 12-hour light/dark cycle. Both groups of animals received food and either water or ethanol ad lib. Body weights were recorded on a weekly basis and fluid consumption was monitored in all groups for the duration of the study. The study was approved by the Louisiana State University Medical Center Institutional Animal Care and Use Committee.
# (§1) Rats in the diabetic group were injected with streptozotocin (45 mg/kg) prepared in a 0.02 M sodium citrate solution (pH 4.5) via a tail vein to induce diabetes mellitus. Rats assigned to all other groups were injected with a similar volume of sodium citrate solution. Glycosylated hemoglobin (total) was measured in tail-vein blood in all rats within two days of echocardiographic examination using a commercially available kit (Sigma Chemical Co, St. Louis, Mo.).
# (§2) Twenty-five rats were used in this experiment with five animals in each group.
# All animals were anesthetized with a solution of ketamine-xylazine (50-mg/kg ketamine, 4-mg/kg xylazine, intraperitoneal) and the thoracic and upper abdominal areas shaved prior to echocardiography. The rats were positioned on a table for M-mode and two-dimensional echocardiograms. Studies were performed with a Toshiba Model 380 Echocardiography instrument (Toshiba America Medical Systems, Tustin, Calif.) using a 10 MHZ transducer calibrated with phantoms prior to use. Lateral resolution less than 0.20 mm within the ROI is achieved at the imaging depths used.
# [2] = test system: Male Sprague-Dawley SPF rats; details: 10-week rats
# Procedure: In Experiment 2 (10-week), cardiac and renal tissues were harvested, rinsed in ice-cold physiologic saline, and then placed in 10% (v/v) formaldehyde solution in aqueous phosphate buffer (pH 7.4) (Mallinckrodt Inc., St. Louis, Mo.). Pancreatic tissue was harvested and fixed in buffered zinc-formaldehyde. Microscopic analysis were performed on H&E stained tissue slices.
# Tissues from 10-week rats were analyzed using H&E staining. […] The degree of infiltration was evaluated qualitatively as none, few (1-4 cells per field), or marked infiltration.
# [3] = mean±SEM; for Body weights at the time of echocardiographic examination: Experiment 1; for Body weights: Experiment 2, 10-weeks
# Procedure: Two groups of laboratory rats were used to perform two separate experiments (Experiments 1 and 2). Male Sprague-Dawley SPF rats (Charles River Laboratories, Wilmington, Ma.) weighing between 175-200 grams were used for each study. Rats were housed two per cage in a controlled-temperature (20-22° Celsius) room where they were exposed to a 12-hour light/dark cycle. Both groups of animals received food and either water or ethanol ad lib. Body weights were recorded on a weekly basis and fluid consumption was monitored in all groups for the duration of the study.
# as §1, §2
# [4] = Experiment 1 (5 Wks), diabetic rats, 4% ethanol
# [5] = Experiment 1 (5 Wks), non-diabetic rats, 12% ethanol
# [6] = Experiment 2 (10 Wks), diabetic rats, 4% ethanol
# [7] = Experiment 2 (10 Wks), non-diabetic rats, 4% ethanol
# [8] = Experiment 2 (10 Wks), non-diabetic rats, 12% ethanol
# [9] = DE4 group (diabetic, 4% ethanol)
# [10] = E12 group (non-diabetic, 12% ethanol)
smiles,measurement,setting,value
"CCO [Ethanol, ethanol]",IVSD,[1]; [4],0.120 ± 0.004 cm
same,LVD,[1]; [4],0.455 ± 0.027 cm
same,PWD,[1]; [4],0.143 ± 0.005 cm
same,IVSD,[1]; [5],0.130 ± 0.007 cm
same,LVD,[1]; [5],0.540 ± 0.027 cm
same,PWD,[1]; [5],0.150 ± 0.003 cm
same,IVSD,[1]; [6],0.105 ± 0.005 cm
same,LVD,[1]; [6],0.618 ± 0.032 cm
same,PWD,[1]; [6],0.125 ± 0.004^d cm
same,IVSD,[1]; [7],0.126 ± 0.01^a cm
same,LVD,[1]; [7],0.533 ± 0.033 cm
same,PWD,[1]; [7],0.155 ± 0.005^c cm
same,IVSD,[1]; [8],0.151 ± 0.004^b cm
same,LVD,[1]; [8],0.593 ± 0.018 cm
same,PWD,[1]; [8],0.159 ± 0.002^c cm
same,"Rats with clear cells, indicative of glycogen deposition, in the kidney",[2]; [9],60%
same,Lymphocytic infiltrates in myocardial IVS on histologic examination,"[2]; DE group (diabetic, 4% ethanol)",did not show infiltrates
same,Lymphocytic infiltrates in myocardial IVS on histologic examination,"[2]; E4 group, all animals, graded none, few (1-4 cells per field), marked",marked lymphocytic infiltrates
same,Lymphocytic infiltrates in myocardial IVS on histologic examination,"[2]; E12 group, all animals, graded none, few (1-4 cells per field), marked",marked lymphocytic infiltrates
same,Body weights at the time of echocardiographic examination,[3]; [9],292±22 grams (g)
same,Body weights at the time of echocardiographic examination,[3]; [10],301±11 grams (g)
same,Body weights,[3]; [9],295 ± 16 g
same,Body weights,"[3]; E4 group (non-diabetic, 4% ethanol)",598 ± 29 g
same,Body weights,[3]; [10],581 ± 25 g
